One test addresses T1, human A2B AR (Homo sapiens, UniProt P29275).
T1 construct: expressed in transfected cells; host or cells: CHO cells
T1 sequence (P29275 1-332): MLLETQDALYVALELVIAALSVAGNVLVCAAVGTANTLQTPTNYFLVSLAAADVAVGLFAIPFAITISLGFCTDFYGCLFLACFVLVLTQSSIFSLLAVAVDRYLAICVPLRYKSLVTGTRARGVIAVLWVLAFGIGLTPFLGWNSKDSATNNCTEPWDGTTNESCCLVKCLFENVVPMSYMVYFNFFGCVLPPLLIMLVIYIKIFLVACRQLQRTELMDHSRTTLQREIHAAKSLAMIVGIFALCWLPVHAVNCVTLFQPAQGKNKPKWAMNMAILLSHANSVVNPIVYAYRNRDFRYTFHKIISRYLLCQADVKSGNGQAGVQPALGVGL
Nature of the test: Radioligand binding assay at human A2B AR vs. [^3H]PSB-603. To be noted: for Ki: CHO cell membranes, n = 2 (n = 3 where marked a), read-out: Ki ± SEM, A2B vs. [^3H]PSB-603; for inhibition at 1 µM: at 1,000 nM. The gist of the method:
(§1)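 Source of receptor: rat brain cortex (A1), rat brain striatum (A2A), recombinant CHO cell membranes (human subtypes). Binding only.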

A further test has as its target T2, human A2A AR (Homo sapiens, UniProt P29274).
T2 construct: expressed in transfected cells; host or cells: CHO cells
The test can be described thus: Radioligand binding assay at human A2A AR vs. [^3H]MSX-2. The note with it: CHO cell membranes, n = 3, read-out: Ki ± SEM, A2A vs. [^3H]MSX-2. The gist of the method: as §1

For another test, the target named is T3, recombinant human MAO-A (Homo sapiens, UniProt P21397).
T3 construct: purchased Sigma-Aldrich M7316; host or cells: baculovirus-infected insect cells
T3 sequence (P21397 1-527): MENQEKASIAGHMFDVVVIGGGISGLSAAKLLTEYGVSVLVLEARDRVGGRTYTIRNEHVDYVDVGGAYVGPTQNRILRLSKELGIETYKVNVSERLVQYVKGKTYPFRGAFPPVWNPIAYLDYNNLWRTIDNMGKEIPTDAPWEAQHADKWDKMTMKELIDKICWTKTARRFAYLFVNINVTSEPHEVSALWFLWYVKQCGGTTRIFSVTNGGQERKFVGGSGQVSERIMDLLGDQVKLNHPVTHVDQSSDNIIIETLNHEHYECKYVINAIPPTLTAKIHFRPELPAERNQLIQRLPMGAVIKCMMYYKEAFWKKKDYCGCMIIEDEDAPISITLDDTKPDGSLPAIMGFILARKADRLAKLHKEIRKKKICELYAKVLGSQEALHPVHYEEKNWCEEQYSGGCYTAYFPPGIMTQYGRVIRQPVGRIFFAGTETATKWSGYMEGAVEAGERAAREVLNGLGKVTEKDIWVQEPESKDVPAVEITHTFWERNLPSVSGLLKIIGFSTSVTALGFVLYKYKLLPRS
The test can be described thus: Monoamine oxidase assay (Amplex Red), MAO-A. The test is classed as biochemical. To be noted: for inhibition at 10 µM: at 10,000 nM, read-out: % inhibition at indicated concentration, Human MAO-A; for IC50: n = 3, read-out: IC50 ± SEM, Human MAO-A. The gist of the method:
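Inhibition was measured with an Amplex Red monoamine oxidase assay, using human MAO-A and MAO-B produced recombinantly in baculovirus-infected insect cells. For rat MAO-B, liver mitochondria-enriched fractions from male Sprague Dawley rats served as enzyme source.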

The mark [1] stands for this setting: read-out: % inhibition of radioligand binding at indicated concentration, A2B vs. [^3H]PSB-603.

The structures appear in SMILES notation. Where only a bound is given, the exact number is not on record here.

T2 sequence (P29274 whole entry): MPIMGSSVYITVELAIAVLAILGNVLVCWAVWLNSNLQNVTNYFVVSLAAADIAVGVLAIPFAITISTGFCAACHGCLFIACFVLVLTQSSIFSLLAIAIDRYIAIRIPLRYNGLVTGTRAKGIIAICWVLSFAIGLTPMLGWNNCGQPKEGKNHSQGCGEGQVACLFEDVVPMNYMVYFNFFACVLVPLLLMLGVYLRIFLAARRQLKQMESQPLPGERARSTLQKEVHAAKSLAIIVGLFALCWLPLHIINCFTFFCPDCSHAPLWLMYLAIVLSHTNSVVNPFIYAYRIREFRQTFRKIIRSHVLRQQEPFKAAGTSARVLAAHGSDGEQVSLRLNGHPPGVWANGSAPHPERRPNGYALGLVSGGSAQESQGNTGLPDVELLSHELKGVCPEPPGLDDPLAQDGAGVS

In general, Ki refers to a measure of affinity in units of concentration, obtained from inhibition or displacement. Usually IC50 stands for the concentration at which inhibition is half-maximal. As for `CCn1c(=O)c2c(nc3n2CCN(Cc2cc(Cl)ccc2Cl)C3)n(C)c1=O` [Compound 14j, 8-(2,5-dichlorobenzyl)-3-ethyl-1-dimethyl-6,7,8,9-tetrahydropyrazino[2,1-f]purine-2,4(1H,3H)-dione], on human A2B AR, the Ki was > 1000 nM. For the same molecule, the inhibition at 1 µM at human A2B AR (setting [1]) turned out to be 2%. For the same molecule, the inhibitory constant (Ki) at human A2A AR worked out at 906 ± 73 nM. For the same molecule, at recombinant human MAO-A, the inhibition at 10 µM worked out at 23% and the IC50 is > 10000 nM.
The corresponding values for `CCn1c(=O)c2c(nc3n2CCN(Cc2cccc(C(F)(F)F)c2F)C3)n(C)c1=O` [Compound 14l, 3-ethyl-8-(2-fluoro-3-(trifluoromethyl)benzyl)-1-methyl-6,7,8,9-tetrahydropyrazino[2,1-f]purine-2,4(1H,3H)-dione] are > 1000 nM, 8%, 2020 nM, 8% and > 10000 nM.
For `CCn1c(=O)c2c(nc3n2CCN(Cc2cc(C(F)(F)F)ccc2Cl)C3)n(C)c1=O` [Compound 14m, 8-(2-chloro-5-(trifluoromethyl)benzyl)-3-ethyl-1-methyl-6,7,8,9-tetrahydropyrazino[2,1-f]purine-2,4(1H,3H)-dione] the same measures were > 1000 nM, 3%, 881 ± 96 nM, 9% and > 10000 nM.
The corresponding values for `CCn1c(=O)c2c(nc3n2CCN(Cc2cc(Br)ccc2F)C3)n(C)c1=O` [Compound 14o, 8-(5-bromo-2-fluorobenzyl)-3-ethyl-1-methyl-6,7,8,9-tetrahydropyrazino[2,1-f]purine-2,4(1H,3H)-dione] are > 1000 nM, 11%, 1700 nM, 15% and > 10000 nM.
With `CCn1c(=O)c2c(nc3n2CCN(Cc2cc(C(F)(F)F)ccc2F)C3)n(CC)c1=O` [Compound 15j, 1,3-diethyl-8-(2-fluoro-5-(trifluoromethyl)benzyl)-6,7,8,9-tetrahydropyrazino[2,1-f]purine-2,4(1H,3H)-dione], the inhibition constant Ki on human A2B AR is > 1000 nM; at human A2A AR, 781 ± 68 nM. In addition, the inhibition at 1 µM on human A2B AR (setting [1]) amounted to 27%. Also, at recombinant human MAO-A, the inhibition at 10 µM is 7%. The IC50 on recombinant human MAO-A is > 10000 nM.
For the molecule `CCn1c(=O)c2c(nc3n2CCN(Cc2ccc(F)c(Br)c2)C3)n(CC)c1=O` [Compound 15k, 8-(3-bromo-4-fluorobenzyl)-1,3-diethyl-6,7,8,9-tetrahydropyrazino[2,1-f]purine-2,4(1H,3H)-dione], the inhibitory constant (Ki) on human A2B AR is > 1000 nM. Also, the inhibition at 1 µM on human A2B AR (setting [1]) came out at 34%. In addition, on human A2A AR, the inhibition constant (Ki) stood at 756 ± 271 nM. Also, at recombinant human MAO-A, the inhibition at 10 µM is -10% and the IC50 was > 10000 nM.
`CCn1c(=O)c2c(nc3n2CCN(Cc2cc(Br)ccc2F)C3)n(CC)c1=O` [Compound 15l, 8-(5-bromo-2-fluorobenzyl)-1,3-diethyl-6,7,8,9-tetrahydropyrazino[2,1-f]purine-2,4(1H,3H)-dione]: at human A2B AR, the Ki was > 1000 nM. Also, the inhibition at 1 µM on human A2B AR (setting [1]) worked out at 24%. Moreover, the inhibition constant Ki on human A2A AR worked out at 598 ± 92 nM. At recombinant human MAO-A, the inhibition at 10 µM is 8% and the 50% inhibitory concentration (IC50) is > 10000 nM.
For `CCn1c(=O)c2c(nc3n2CCN(Cc2cc(Cl)cc(Cl)c2)C3)n(CC)c1=O` [Compound 15m, 8-(3,5-dichlorobenzyl)-1,3-diethyl-6,7,8,9-tetrahydropyrazino[2,1-f]purine-2,4(1H,3H)-dione], the values for the Ki on human A2B AR and at human A2A AR were > 1000 nM and 631 ± 122 nM, respectively. Besides, the inhibition at 1 µM at human A2B AR (setting [1]) worked out at 23%. Moreover, at recombinant human MAO-A, the inhibition at 10 µM stood at 1%. Besides, the IC50 on recombinant human MAO-A was > 10000 nM.
For `CCn1c(=O)c2c(nc3n2CCN(Cc2cc(C(F)(F)F)ccc2Cl)C3)n(CC)c1=O` [Compound 15n, 8-(2-chloro-5-(trifluoromethyl)benzyl)-1,3-diethyl-6,7,8,9-tetrahydropyrazino[2,1-f]purine-2,4(1H,3H)-dione] the same measures were > 1000 nM, 613 ± 34 nM, 23%, -4% and > 10000 nM.
For `CCn1c(=O)c2c(nc3n2CCN(Cc2cc(F)c(F)c(F)c2)C3)n(CC)c1=O` [Compound 15r, 1,3-diethyl-8-(3,4,5-trifluorobenzyl)-6,7,8,9-tetrahydropyrazino[2,1-f]purine-2,4(1H,3H)-dione] the same measures were > 1000 nM, 4110 nM, 23%, 7% and > 10000 nM.
For `CCn1c(=O)n(C)c(=O)c2c1nc1n2CCN(Cc2ccc(Cl)c(Cl)c2)C1` [Compound 16a, 8-(3,4-dichlorobenzyl)-1-ethyl-3-methyl-6,7,8,9-tetrahydropyrazino[2,1-f]purine-2,4(1H,3H)-dione] the same measures were > 1000 nM, 1620 nM, 5%, 6% and > 10000 nM.
With `CCn1c(=O)n(C)c(=O)c2c1nc1n2CCN(Cc2cc(Cl)cc(Cl)c2)C1` [Compound 16b, 8-(3,5-dichlorobenzyl)-1-ethyl-3-methyl-6,7,8,9-tetrahydropyrazino[2,1-f]purine-2,4(1H,3H)-dione], the inhibition constant (Ki) at human A2B AR is > 1000 nM. Moreover, at human A2B AR (setting [1]), the inhibition at 1 µM amounted to 5%. Moreover, the inhibition constant (Ki) at human A2A AR is 2230 nM. At recombinant human MAO-A, the inhibition at 10 µM turned out to be 8% and the IC50 was > 10000 nM.
As to `Cn1c(=O)c2c(nc3n2CCN(Cc2ccc(Cl)c(Cl)c2)C3)n(C2CC2)c1=O` [Compound 17, 8-(3,4-dichlorobenzyl)-1-cyclopropyl-3-methyl-6,7,8,9-tetrahydropyrazino[2,1-f]purine-2,4(1H,3H)-dione], the inhibition constant Ki at human A2B AR was > 100 nM. For the same molecule, at human A2B AR (at 100 nM, read-out: % inhibition of radioligand binding at indicated concentration, A2B vs. [^3H]PSB-603), the inhibition at 0.1 µM came out at 2%. Also, on recombinant human MAO-A, the inhibition at 10 µM is 7% and the concentration for half-maximal inhibition (IC50) was > 10000 nM.
For the molecule `C#CCn1c(=O)c2c(nc3n2CCN(Cc2ccc(Cl)c(Cl)c2)C3)n(C)c1=O` [Compound 19a, 8-(3,4-dichlorobenzyl)-1-methyl-3-propargyl-6,7,8,9-tetrahydropyrazino[2,1-f]purine-2,4(1H,3H)-dione], the inhibition constant Ki at human A2B AR is > 1000 nM. For the same molecule, the inhibition at 1 µM on human A2B AR (setting [1]) turned out to be 23%. Besides, on human A2A AR, the Ki was 1580 nM. At recombinant human MAO-A, the inhibition at 10 µM came out at 12% and the half-inhibitory concentration (IC50) was > 10000 nM.
For `C#CCn1c(=O)c2c(nc3n2CCN(Cc2cc(C(F)(F)F)ccc2Cl)C3)n(C)c1=O` [Compound 19b, 8-(2-chloro-5-(trifluoromethyl)benzyl)-1-methyl-3-propargyl-6,7,8,9-tetrahydropyrazino[2,1-f]purine-2,4(1H,3H)-dione] the same measures were > 1000 nM, 3%, 712 ± 129 nM, 5% and > 10000 nM.
As to `C#CCn1c(=O)c2c(nc3n2CCN(c2cccc(OC)c2)C3)n(CC)c1=O` [Compound 20c, 1-ethyl-8-(3-methoxyphenyl)-3-propargyl-6,7,8,9-tetrahydropyrazino[2,1-f]purine-2,4(1H,3H)-dione], the inhibition constant Ki on human A2B AR was > 1000 nM. On human A2B AR (setting [1]), the inhibition at 1 µM came out at 38%. Further, the inhibitory constant (Ki) on human A2A AR came to 289 ± 85 nM. In addition, on recombinant human MAO-A, the inhibition at 10 µM is 6% and the IC50 is > 10000 nM.
